pEC50: −log10 of the molar value. Like-named read-outs stand apart in the source and are kept apart here.
Columns and labels:
Assay type in all cases: cell-based
[1] = tested on: Saccharomyces cerevisiae; assay: Saccharomyces cerevisiae toxicity assay; conditions: 3 h incubation, colony count vs DMSO only control; highest concentration tested 11 µg/µL
Description: These compounds were also assessed for mutagenicity and toxicity in Saccharomyces cerevisiae and the toxicity results are summarized in Table 1. No compound was mutagenic in this assay.
All compounds were tested for toxicity and mutagenicity using a Saccharomyces cerevisiae based assay as described previously. Toxicity was assessed in this assay (Table 1), comparing growth on plates to control treatments. Compounds were solubilized in DMSO at increasing concentrations and cells were incubated with the compounds for 3 h before plating on selective media or YPD to assess toxicity and mutagenicity. Cytotoxicity was assessed as described. Growth of colonies on the full nutrient YPD plate for each treatment was compared to the DMSO only control. The concentration at which 50% cell death (as indicated by colony count compared to DMSO only control) +/−10% cell death is reported as the 50% killing rate. The highest concentration tested was 11 µg/µL.

[2] = biological target: T1, RXR-LXR heterodimer (LXR/LXRE) (Homo sapiens, UniProt P19793); assay: LXRE-luciferase transactivation assay in HEK293 cells; conditions: for LXRE Activity (% of Bex): 100 nM compound alone, HEK293, bexarotene (1) set to 100%; for LHS Score (vs. Bex): LXRE Heterodimer Specificity: LXRE:RXRE activity ratio, compound 1 set to 1.0
T1 construct: expressed in transfected cells; host or cells: HEK293 cells
T1 sequence (P19793 1-462): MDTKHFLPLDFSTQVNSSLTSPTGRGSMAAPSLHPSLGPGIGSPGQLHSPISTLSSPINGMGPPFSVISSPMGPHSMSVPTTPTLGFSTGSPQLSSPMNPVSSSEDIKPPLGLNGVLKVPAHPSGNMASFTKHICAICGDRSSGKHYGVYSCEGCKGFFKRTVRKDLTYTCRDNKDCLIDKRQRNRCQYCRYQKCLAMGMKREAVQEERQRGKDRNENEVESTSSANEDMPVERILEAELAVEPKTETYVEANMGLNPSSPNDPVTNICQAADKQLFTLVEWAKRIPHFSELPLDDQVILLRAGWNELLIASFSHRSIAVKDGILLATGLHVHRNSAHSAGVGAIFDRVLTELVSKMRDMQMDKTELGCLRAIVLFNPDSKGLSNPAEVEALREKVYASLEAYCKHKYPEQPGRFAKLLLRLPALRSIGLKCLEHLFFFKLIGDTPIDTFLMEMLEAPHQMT
T1 sequence (Q13133 1-447 partner): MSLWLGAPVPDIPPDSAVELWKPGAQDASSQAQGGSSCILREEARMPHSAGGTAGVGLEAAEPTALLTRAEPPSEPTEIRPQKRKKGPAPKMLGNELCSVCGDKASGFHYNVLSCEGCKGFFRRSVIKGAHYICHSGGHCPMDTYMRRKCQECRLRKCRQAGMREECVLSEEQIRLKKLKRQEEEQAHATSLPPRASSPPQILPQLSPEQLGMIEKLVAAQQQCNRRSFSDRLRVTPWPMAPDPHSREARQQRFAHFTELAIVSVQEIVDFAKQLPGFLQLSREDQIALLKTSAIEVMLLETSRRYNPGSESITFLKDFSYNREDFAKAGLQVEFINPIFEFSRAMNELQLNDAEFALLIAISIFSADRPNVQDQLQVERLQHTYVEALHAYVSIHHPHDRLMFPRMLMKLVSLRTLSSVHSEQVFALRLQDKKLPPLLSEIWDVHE
Description: The activation from this natural LXRE in our system was tested in the presence of either 100 nM RXR agonists alone or in combination with 100 nM of both the RXR agonist and LXR agonist T0901317 (TO). […] The LXRE-mediated assays were performed using human embryonic cells (HEK293) seeded at a density of 60,000 cells/well in a 24-well plate and maintained in DMEM (Hyclone) supplemented with 10% fetal bovine serum, 100 µg/mL streptomycin, 100 U/mL penicillin (Invitrogen, Carlsbad, CA, USA) at 37 degrees Celsius, 5% CO2 for 24 h. The cells were co-transfected with 250 ng of an LXRE-luciferase reporter gene, 50 ng of pSG5-human RXRα, and 20 ng of renilla control plasmid. […] After 24 h post treatment, the cells were lysed and the transcriptional activity mediated by the LXRE was measured using the Dual Luciferase Assay System (Promega, Madison, WI) in a Sirius FB12 luminometer (Berthold Detection Systems, Pforzheim, Germany) according to the manufacturer’s protocol. The data are a compilation of between three and six independent assays with each treatment group dosed in triplicate for each independent assay. […] Bars on all graphs indicate standard deviation of the replicate experiments.
Cells were transfected for 24 h utilizing a liposome-mediated transfection protocol and then treated with the ethanol vehicle, or 100 nM of the indicated compound alone or in combination with 100 nM TO901317 (TO). […] (A) Human HEK-293 cells were transfected and treated as described in Figure 8.

[3] = biological target: T2, human RARα (Homo sapiens, UniProt P10276); assay: RARE-luciferase reporter assay in HEK293 cells; conditions: HEK293, all-trans-RA set to 100%
T2 construct: expressed in transfected cells; host or cells: HEK293 cells
T2 sequence (P10276 1-462): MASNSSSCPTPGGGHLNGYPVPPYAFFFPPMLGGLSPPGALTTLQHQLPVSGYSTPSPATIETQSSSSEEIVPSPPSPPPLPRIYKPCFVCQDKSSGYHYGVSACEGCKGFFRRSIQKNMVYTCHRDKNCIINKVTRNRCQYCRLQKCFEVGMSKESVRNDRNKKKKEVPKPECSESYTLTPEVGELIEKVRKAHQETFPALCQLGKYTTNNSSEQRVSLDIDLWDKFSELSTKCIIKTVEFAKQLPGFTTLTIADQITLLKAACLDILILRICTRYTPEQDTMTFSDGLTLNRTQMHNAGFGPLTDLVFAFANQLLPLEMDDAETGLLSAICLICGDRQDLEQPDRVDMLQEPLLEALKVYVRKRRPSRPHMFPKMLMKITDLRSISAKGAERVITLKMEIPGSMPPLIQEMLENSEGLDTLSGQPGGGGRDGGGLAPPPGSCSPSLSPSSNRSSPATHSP
Description: Human embryonic kidney cells (HEK293) were plated at 60,000 cells per well in a 24-well plate and maintained as described above. After 24 h, the cells were transfected with 250 ng pTK-DR5(X2)-Luc, 25 ng pCMX-human RARα, and 20 ng renilla utilizing 1.25 µL polyethylenimine (PEI) per well for 24 h. The sequence of the double DR5 RARE is: 5′-[…]-3′ (DR5 responsive elements underlined). The cells were treated with ethanol vehicle (0.1%), all-trans-retinoic acid (RA, the ligand for RAR), or the indicated rexinoid at a final concentration of 10 nM. After 24 h of treatment, the retinoid activity was measured as described above (dual luciferase assay). […] Three independent assays were conducted with triplicate samples for each treatment group. The value for RA was set to 100%. […]

[4] = biological target: T3, RXRα (Homo sapiens, UniProt P19793); assay: UAS/Gal4 GFP reporter assay of RXRα activation in UAS-GFP x KMT2A-MLLT3 cells; conditions: for EC50: RXRα activation, value (SD), Table 1 does not say whether GFP or Luc assay, read-out: EC50 (nM) +/−(SD)
T3 construct: expressed in transfected cells; host or cells: UAS-GFP x KMT2A-MLLT3 cells (retroviral transduction)
T3 sequence (P19793 227-458 limits assumed): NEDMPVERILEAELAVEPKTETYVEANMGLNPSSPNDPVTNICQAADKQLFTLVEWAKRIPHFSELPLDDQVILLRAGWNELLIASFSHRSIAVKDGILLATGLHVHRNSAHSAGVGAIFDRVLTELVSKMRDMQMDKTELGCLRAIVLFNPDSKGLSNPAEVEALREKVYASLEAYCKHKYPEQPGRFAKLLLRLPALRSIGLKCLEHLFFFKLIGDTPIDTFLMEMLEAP
Description: Cells were treated, and after 48 h, GFP measured by a ZE5 Flow Cytometer (Biorad).

| SMILES | Cyto-Toxicity (50% Cell Death) [1] | LXRE Activity (% of Bex) [2] | RARE Activity (%RA at 10 nM) [3] | EC50 [4] | LXRE activity in combination with LXR ligand T0901317 (TO) ([2]; 100 nM compound + 100 nM T0901317, HEK293, compared with TO+1) | LHS Score (vs. Bex) [2] | pEC50 [4] |
| --- | --- | --- | --- | --- | --- | --- | --- |
| C=C(c1ccc(C(=O)O)cc1)c1cc2c(cc1C)C(C)(C)CCC2(C)C [Compound 1, reference compound] | 0.5 µg/µL |  |  |  |  |  |  |
| CCN(c1ccc(OCC(C)C)c(C(C)C)c1)c1ccc(C(=O)O)cn1 [Compound 25, 6-(ethyl(4-isobutoxy-3-isopropylphenyl)amino)nicotinic acid] | none | 72.4 % of Bex | 2.9 %RA | 274 nM |  |  |  |
| C=C(c1ccc(C(=O)O)cc1)c1cc2c(cc1C)C(C)(C)CC2(C)C [Compound 26, reference compound] | none | 94.5 % of Bex | 3.0 %RA | 70.1 nM | higher activity than TO+1 | 0.66 |  |
| C=C(c1ccc(C(=O)O)cc1)c1ccc2c(c1)C(C)(C)CCC2(C)C [Compound 27, 4-(1-(5,5,8,8-tetramethyl-5,6,7,8-tetrahydronaphthalen-2-yl)vinyl)benzoic acid, reference compound] | 0.5 µg/µL | 82.4 % of Bex | 1.5 %RA |  |  | 1.0 | 6.77 |
| CCN(c1ccc(OCC(C)C)c(C(C)C)c1)c1ncc(C(=O)O)cn1 [Compound 28, 2-(ethyl(4-isobutoxy-3-isopropylphenyl)amino)pyrimidine-5-carboxylic acid] | 1 µg/µL | 77.7 % of Bex | 1.6 %RA | 297 nM |  |  |  |
| CCN(c1ccc(C(=O)O)cc1)c1ccc(OCC(C)C)c(C(C)C)c1 [Compound 30, 4-(ethyl(4-isobutoxy-3-isopropylphenyl)amino)benzoic acid] | 0.08 µg/µL | 60.2 % of Bex | 1.1 %RA | 397 nM |  |  |  |
| C=C(c1ncc(C(=O)O)cn1)c1cc2c(cc1C)C(C)(C)CC2(C)C [Compound 32, 2-(1-(1,1,3,3,6-pentamethyl-2,3-dihydro-1H-inden-5-yl)vinyl)pyrimidine-5-carboxylic Acid] | none | 46.0 % of Bex | 12.9 %RA | 34.4 nM |  | 0.38 |  |
| Cc1cc2c(cc1C1(c3ncc(C(=O)O)cn3)CC1)C(C)(C)CC2(C)C [Compound 33, 2-(1-(1,1,3,3,6-pentamethyl-2,3-dihydro-1H-inden-5-yl)cyclopropyl)pyrimidine-5-carboxylic Acid] | none | 50.9 % of Bex | 5.9 %RA | 17 nM |  | 0.38 |  |
| C=C(c1ccc2c(c1)C(C)(C)CCC2(C)C)c1ncc(C(=O)O)cn1 [Compound 34, 2-(1-(5,5,8,8-tetramethyl-5,6,7,8-tetrahydronaphthalen-2-yl)vinyl)pyrimidine-5-carboxylic acid] | none | 77.6 % of Bex | 10.3 %RA | 56.2 nM |  | 0.70 |  |
| CC1(C)CCC(C)(C)c2cc(C3(c4ncc(C(=O)O)cn4)CC3)ccc21 [Compound 35, 2-(1-(5,5,8,8-tetramethyl-5,6,7,8-tetrahydronaphthalen-2-yl)cyclopropyl)pyrimidine-5-carboxylic acid] | none | 60.6 % of Bex | 5.1 %RA | 1.3 nM |  |  |  |
| C=C(c1ccc(C(=O)O)c(F)c1)c1ccc2c(c1)C(C)(C)CCC2(C)C [Compound 36, 2-fluoro-4-(1-(5,5,8,8-tetramethyl-5,6,7,8-tetrahydronaphthalen-2-yl)vinyl)benzoic Acid] | 0.08 µg/µL | 85.2 % of Bex | 1.4 %RA | 375 nM |  |  |  |

From paper PMC8624485, “Modeling, Synthesis, and Biological Evaluation of Potential Retinoid-X-Receptor (RXR) Selective Agonists: Analogs of 4-[1-(3,5,5,8,8-Pentamethyl-5,6,7,8-tetrahyro-2-naphthyl)ethynyl]benzoic Acid (Bexarotene) and 6-(Ethyl(4-isobutoxy-3-isopropylphenyl)amino)nicotinic Acid (NEt-4IB)” (International Journal of Molecular Sciences, 2021)
